The target of the assay is T1, IRE1 (IRE1α, Inositol requiring enzyme 1α) (Homo sapiens, UniProt O75460).
T1 construct: gene ERN1; recombinant IRE1 (aa 465–977, His & GST Tag); cytosolic domain
The assay is described as follows: in vitro fluorescence RNase assay, cleavage of XBP1 mini-probe (Cy5). In kind it is biochemical.

Like-named read-outs stand apart in the source and are kept apart here.

For orientation: IC50 means the concentration that inhibits the measured activity by half.

T1 sequence (O75460 465-977): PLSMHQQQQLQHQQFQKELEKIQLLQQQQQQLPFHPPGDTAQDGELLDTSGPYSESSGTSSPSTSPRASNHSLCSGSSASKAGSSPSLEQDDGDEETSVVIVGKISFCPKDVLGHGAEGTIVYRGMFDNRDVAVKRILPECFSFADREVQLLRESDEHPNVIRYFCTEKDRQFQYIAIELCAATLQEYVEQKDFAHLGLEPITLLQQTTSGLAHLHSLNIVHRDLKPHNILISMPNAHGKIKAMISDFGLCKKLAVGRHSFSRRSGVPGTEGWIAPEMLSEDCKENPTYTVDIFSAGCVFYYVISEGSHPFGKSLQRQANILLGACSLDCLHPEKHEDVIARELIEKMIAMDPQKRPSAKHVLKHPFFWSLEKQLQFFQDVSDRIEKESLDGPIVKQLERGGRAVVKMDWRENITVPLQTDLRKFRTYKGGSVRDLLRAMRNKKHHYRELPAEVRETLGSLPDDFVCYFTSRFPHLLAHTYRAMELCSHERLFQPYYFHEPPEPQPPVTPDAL

`C[C@@H]1O[C@@H](Oc2c(-c3ccc(O)c(O)c3)oc3cc(O)cc(O)c3c2=O)[C@H](O)[C@H](O)[C@H]1O` [Qi, quercitrin] came in with an IC50 of 230 ± 100 nM.

As to `C[C@@H]1O[C@@H](OC[C@H]2O[C@@H](Oc3c(-c4ccc(O)c(O)c4)oc4cc(O)cc(O)c4c3=O)[C@H](O)[C@@H](O)[C@@H]2O)[C@H](O)[C@H](O)[C@H]1O` [rutin], half-maximal inhibition (IC50) required 530 ± 300 nM.

Turning to `NC[C@@H]1O[C@H](O[C@H]2[C@@H](O)[C@H](O[C@@H]3[C@@H](O)[C@H](N)C[C@H](N)[C@H]3O[C@H]3O[C@H](CN)[C@@H](O)[C@H](O)[C@H]3N)O[C@@H]2CO)[C@H](N)[C@@H](O)[C@@H]1O` [neomycin], under “read-out: IC50”, the IC50 came out at 330 ± 300 nM.

Compound `Nc1nc2[nH]cc(CCc3ccc(C(=O)N[C@@H](CCC(=O)O)C(=O)O)cc3)c2c(=O)[nH]1` [PMT, pemetrexed] came in with an IC50 of 260 ± 200 nM.

(Values after publication PMC9010685, “Sensor dimer disruption as a new mode of action to block the IRE1-mediated unfolded protein response” (Computational and Structural Biotechnology Journal, 2022).)
